# According to US8865967B2 (priority 2010, dated 2014):
# Tested on: Colletotrichum graminicola (CGR; isolate Carroll-IA-99)
# Format: cell-based
# Conditions: in words, variant after one round of DNA shuffling
substance,measurement,value
Pp-PDF1-1C-7A4: Pp-PDF1 variant from first shuffling round (RVCEKPSKFFKGLCGSDRDCTNACRKEGLATGECQSKGFFNSVCVCKKPC; Synthetic sequence obtained from DNA shuffling of a plant sequence.),in vitro inhibitory activity against Colletotrichum graminicola,significantly improved
